In article PMC10299677, “Fluorinated Benzofuran and Dihydrobenzofuran as Anti-Inflammatory and Potential Anticancer Agents” (International Journal of Molecular Sciences, 2023):

Key:
[1] = tested on: CCL2 mRNA; assay: LPS-dependent CCL2 mRNA in THP-1-derived macrophages (RT-PCR); assay type: cell-based, human; conditions: 50 µM, 10 ng/ml LPS 6 h
Method: F i g u re S3: Eff ect of benzofuran compounds on the lev els of LP S -dependent mRNA of CCL2 and IL-6 in THP-1 –deriv ed macrophages. Human-monoc yti c cell l ine-THP-1 wer e treat ed with PMA (25 nM for 48 hours) th en in cub ated with 50 μM compounds for 30 minutes b efo re the addit ion of 10 ng/ml LP S fo r 6 hours. Gene ex pression of IL6 and CCL2 were measur ed by RT-PCR and the v alu es wer e nor mal ized to GAPDH. Results represent means ± SEM by one way ANOVA followed by Dunnett test.

[2] = tested on: HCT116 cells; assay: HCT116 proliferation (WST-1 assay); assay type: cell-based, human; conditions: for inhibition of HCT116 cell proliferation: 50 and 100 µM, 72 h; for IC50: Homo sapiens, HCT-116, 72 h
Method: WST-1 assay was used to determine the effect of these compounds on HCT116 proliferation. Cells were plated in 96-well plate in triplicates (5000 cells per well) for 24 h and treated with 50 and 100 µM of the different compounds for 72 h. […] Culture medium without or with 10% FBS alone was used as basal and maximal proliferation, respectively. Results were expressed as percentage of cells incubated with 10% FBS alone.
(§1) Densitometric analyses were performed using ImageJ software (NIH, MA, USA). The ratio of the different analyzed bands to β-actin was determined and data are represented as fold change compared to the LPS-treated cells. Percentage of viable cells for proliferation assay was determined as percentage to control (non-treated cells). For TUNEL assay, apoptotic cells were quantified, and results were expressed as percentage to positive cells (cleaved DNA) compared to control (non-treated cells). Statistical analysis was performed using one-way ANOVA, followed by Dunnett’s multiple comparisons test using GraphPad Prism software. Differences were considered significant when p < 0.05.

[3] = tested on: HCT116 cells; assay: TUNEL assay for apoptosis (DNA cleavage) in HCT116; assay type: cell-based, human; conditions: 10, 25 and 50 µM, 72 h
Method: Terminal deoxynucleotidyl transferase dUTP nick-end labeling (TUNEL) assay (Sigma Aldrich 11684795910) was conducted to detect late phase of apoptosis in HCT116 cells. Cells were plated in 6-well plate (200,000 cells per well) for 24 h, and treated with compounds 1 and 2 at 10, 25, and 50 µM for 72 h. Adherent cells and cells in supernatants were collected and fixed with 4% paraformaldehyde for 2 days and then treated with PBS containing 0.1% Triton X-100 at 4 °C for 2 min. Cells were then stained with the TUNEL reagent for 1 h, and positive signals were quantified using the Guava EasyCyte8 Flow Cytometer-Millipore according to the manufacturer’s instructions.
as §1

[4] = tested on: Bcl-2; assay: Bcl-2 protein expression in HCT116 (Western blot); assay type: cell-based, human; conditions: 10, 25 and 50 µM, 72 h
Method: (§2) Macrophages were incubated with the compounds for 30 min prior to the addition of 10 ng/mL LPS for 24 h. Protein levels for COX-2 and NOS2 were detected in LPS-stimulated macrophages. As previously described, 10 µg of total protein was assessed. The primary antibodies were developed and characterized as previously described: for COX-2, mouse monoclonal antibody anti-COX-2 (clone COX-214, 1/5000); for NOS2, rabbit polyclonal antibody anti-NOS2 (dilution1/2000 [33]). Antibodies anti-phospho-NF-κB (3033S), phospho-IκBα (9246S), and total IκBα (4814S) were from Cell Signaling Technologies (Danvers, MA, USA). Total NF-κB C-20 (sc-372) was from Santa Cruz Biotechnologies (Dallas, TX, USA), and mouse β-actin (dilution 1/10,000) (Sigma-Aldrich, A5441). Clarity™ western ECL substrate (Bio-Rad Laboratories 10-5061) was used according to the manufacturer’s instructions to reveal positive bands visualized using Bio-Rad ChemiDoc. For Bcl-2 and cleaved PARP-1, HCT116 cells were plated in 6-well plates (200,000 cells per well) for 24 h, and treated with compounds 1 and 2 at 10, 25, and 50 µM for 72 h. Supernatants and cells were collected and lysed using RIPA lysis buffer containing inhibitors of protease. […]

[5] = tested on: PARP-1; assay: Cleaved PARP-1 protein in HCT116 (Western blot); assay type: cell-based, human; conditions: 10, 25 and 50 µM, 72 h
Method: as §2

[6] = tested on: NO; assay: NO (nitrite) formation in LPS-treated macrophages (BMDM); assay type: cell-based, C57BL/6J mice; conditions: for effect on NO production: 50 µM, LPS 24 h; for IC50: compounds 30 min prior to 10 ng/mL LPS for 24 h
Method: C57BL/6J (10–15 weeks old) male mice were obtained from the animal care facility at the American University of Beirut. All animal procedures were performed following the recommendations of the IACUC (Institutional Animal Care and Use Committee approval 16-09-M379). BMDMs were prepared and characterized as described previously by our group. BMDMs were isolated from C57BL/6J mice by flushing the femur and tibia with RPMI-1640 culture media (Sigma-Aldrich R7388), and cells were collected and centrifuged at 300× g for 5 min. The supernatant was discarded, and the pellet was resuspended in 2 mL red blood lysis 10% (Sigma-Aldrich R7767) medium in PBS and incubated for 5 min at room temperature. After diluting the suspension of cells with 5 mL of RPMI containing 10% FBS and 1% penicillin–streptomycin, cells were centrifuged at 300× g for 5 min, and the cell pellet was resuspended in RPMI media containing 10% FBS supplemented with 15% L929-conditioned medium containing macrophage-colony stimulating factor (M-CSF1) and plated on […]. Cells were allowed to proliferate and differentiate for 5–6 days. Cells were harvested, washed, and allowed to adhere overnight in RPMI containing 10% FBS for treatment. Cells were previously characterized by flow cytometry as macrophages using this method. […] Cells were plated at 0.8 × 10^6 cells per 3.8 cm^2 well [27].
BMDMs were then treated with different concentrations of the benzofuran and dihydrobenzofuran derivatives for 30 min prior to the addition of 10 ng/mL LPS for 24 h. […] The supernatants were assessed for IL-6, PGE2, CCL2, and nitrite, the stable derivative of NO, as described previously.
IL-6, CCL2, nitrite (for NO), and PGE2 concentrations from 3–5 independent experiments were expressed as percentage of LPS alone and as mean ± SEM. COX activity was determined as percentage of PGE2 produced from exogenous arachidonic acid. Curve fitting and calculation of IC50 values were performed using GraphPad Prism (version 9.5.1 Software, La Jolla, CA, USA).

Row | IC50 [2] | IC50 ([6]; Mus musculus, Macrophage) | IC50 [6] | SMILES | effect on CCL2 mRNA levels [1] | inhibition of HCT116 cell proliferation [2] | percentage of apoptotic cells, TUNEL [3] | expression of antiapoptotic protein Bcl-2 [4] | protein level of cleaved PARP-1 [5] | effect on NO production [6]
1 | 19.5 µM | – | – | COC(=O)/C=C1/Oc2ccc(Br)cc2C1(F)F [Compound 1] | decreased significantly | more than 50% | concentration-dependent increase | decreased | increase | –
2 | 24.8 µM | 2.4 µM | 2.42 µM | O=C(O)/C=C1/Oc2ccc(Br)cc2C1(F)F [Compound 2] | decreased significantly | more than 50% | concentration-dependent increase | decreased | increase | significantly decreased
3 | – | 5.2 µM | 5.23 µM | O=C(O)/C=C1\Oc2ccc(Br)cc2C1(F)F [Compound 3] | – | – | – | – | – | significantly decreased
